Values of other authors in patent US20170165627A1, “MICROENCAPSULATION PROCESS” (ENCAPSYS, LLC, priority 2015, published 2017).
≈ marks a conversion by molar mass, not a printed value.

Legend:
[1] = @ 25° C.
[2] = temperature at which the initiator has a 10 hour half-life

Solubility in water [1]	Compound	10 hour ½ life at (temperature) [2]
	CC(C)(N=NC(C)(C)C(=O)NCCO)C(=O)NCCO [VA-086, 2,2′-Azobis[2-methyl-N-(2-hydroxyethyl)propionamide]]	10 hour ½ life at 86 °C
	CCC(C)(C#N)N=NC(C)(C#N)CC (centres unmarked) [Vazo-67, 2,2′-azobis(2-methylbutyronitrile)]	67 °C
	CC(C)(N=NC(C)(C)C(=N)N)C(=N)N.Cl [Example V-50, 2,2′-azobis(2-amidinopropane) hydrochloride]	½ life at 56 °C
	N#CC1(N=NC2(C#N)CCCCC2)CCCCC1 [Vazo-88, 1,1′-Azobis(cyclohexanecarbonitrile)]	88 °C
Water soluble	polyethylene glycol (600) diacrylate [SR610]	
Water soluble	Polyethylene glycol 400 diacrylate [SR344]	
40.68 g/L	Polyethylene glycol 200 diacrylate [SR259]	

Compound	Solubility in water [1]	10 hour ½ life at (temperature) [2]
C=CC(=O)OCCOCCOCC [SR256, 2-(2-ethoxyethoxy) ethyl acrylate]	25.33 g/L (≈ 135 mM)	
